These results are taken from ChEMBL document CHEMBL1208777, “Synthesis of novel oxime-containing pyrazole derivatives and discovery of regulators for apoptosis and autophagy in A549 lung cancer cells” (Bioorg Med Chem Lett, 2010).

Test [1] has as its system A549. In words: Cytotoxicity against human A549 cells after 48 hrs by SRB assay. The format is functional, cell-based. To be noted: for IC50: A549, 48 h. Background: The SRB assay estimates cell density from bound dye.
Test [2] relates to A549. Briefly: Cytotoxicity against human A549 cells at 10 to 40 uM by SRB assay. The test is classed as functional, cell-based. Conditions: TDE = time-dependent effect.
The test system of test [3] is A549. Briefly: Induction of necrosis in human A549 cells assessed as LDH release at 40 uM after 48 hrs. The format is functional, cell-based.
The subject of test [4] is A549. In words: Anticancer activity against human A549 cells assessed as increase in autophagosome level at 40 uM after 24 hrs by Western blot analysis. The test is classed as functional, cell-based. (In general: Immunoblotting shows a protein as a band on a membrane.)
Test [5] deals with A549. In words: Cytotoxicity against human A549 cells at 10 uM after 48 hrs by SRB assay. To be noted: A549, 48 h. The test is classed as functional.
The subject of test [6] is A549. In words: Cytotoxicity against human A549 cells at 20 uM after 48 hrs by SRB assay. The format is functional. To be noted: A549, 48 h.
In test [7] the test system is A549. Briefly: Cytotoxicity against human A549 cells at 40 uM after 48 hrs by SRB assay. The test is classed as functional. Conditions: A549, 48 h.
For test [8], the system named is A549. Briefly: Induction of apoptosis in human A549 cells assessed as occurrence of nuclear granulation at 10 to 40 uM after 48 hrs by Hoechst 33258 staining-based fluorescence microscopy. The test is classed as functional, cell-based.
In test [9] the test system is A549. Briefly: Anticancer activity against human A549 cells assessed as occurrence of autophagy at 10 to 40 uM after 48 hrs by acridine orange staining-based fluorescence microscopy. The format is functional, cell-based.
In test [10] the test system is A549. In words: Anticancer activity against human A549 cells assessed as increase in autophagosome level at 20 uM after 24 hrs by Western blot analysis. The format is functional, cell-based.

Calls of active or inactive are those of the source. The rule behind the calls is not given here.

For orientation: IC50 means the midpoint of a concentration-inhibition curve. The term inhibition denotes the change of the read-out against control, counted positive when it falls. A lower inhibition goes with a weak effect.

On to `CCOC(=O)c1cc(-c2ccccc2)nn1C/C(=N/O)c1ccc(OC)cc1`, for which the values for the Activity result in the test with A549 [1] and in the test with A549 [2] were “Dose-dependent effect” and “tde”, respectively. Half-maximal inhibition in the test with A549 [1] (IC50) was put at 29.1 µM. In addition, the outcome with A549 [3] and in the test with A549 [4] was inactive.

Consider `CCOC(=O)c1cc(-c2ccc(Cl)cc2)nn1C/C(=N/O)c1ccc(Cl)cc1`, for which 10 µM produced 58.6% inhibition in the test on A549 [5]. This compound also had an inhibition at 20 µM in the test with A549 [6] of 51.9%. Further, at 40 µM the inhibition in the test on A549 [7] was 10.3%. The Activity result in the test on A549 [1] was “Dose-dependent effect”; in the test on A549 [2] it was “tde”. The same compound returned an IC50 with A549 [1] of 14.6 µM. The outcome in the test on A549 [8], in the test with A549 [9] and in the test on A549 [10] was Active. In addition, the result in the test on A549 [3] was inactive.

Regarding `CCOC(=O)c1cc(-c2ccc(OC)cc2)nn1C/C(=N/O)c1ccc(Cl)cc1`, the Activity result in the test on A549 [1] is “Dose-dependent effect”; in the test with A549 [2] it was “tde”. This compound returned an IC50 in the test with A549 [1] of 16.3 µM. Moreover, the result in the test on A549 [8], in the test with A549 [9] and in the test on A549 [4] was Active. The result in the test on A549 [3] was inactive.

Consider `CCOC(=O)c1cc(-c2ccc(Cl)cc2)nn1C/C(=N/O)c1ccccc1`, for which the values for the Activity entry with A549 [1] and in the test with A549 [2] were “Dose-dependent effect” and “tde”, respectively. In the test on A549 [1], this compound displayed an IC50 of 31.4 µM. For the same compound, the outcome with A549 [8], with A549 [9] and in the test on A549 [4] was Active. For the same compound, in the test on A549 [3], the outcome was inactive.

Turning to `CCOC(=O)c1cc(-c2ccccc2)nn1C/C(=N/O)c1ccccc1`, the Activity result in the test on A549 [1] is “Dose-dependent effect”; in the test with A549 [2] it was “tde”. This compound returned an IC50 with A549 [1] of 29.8 µM. In the test with A549 [8], the outcome was Active. Moreover, the result in the test on A549 [3] was inactive.

As for `CCOC(=O)c1cc(-c2ccc(OC)cc2)nn1C/C(=N/O)c1ccccc1`, in the test on A549 [1], the Activity result is “Dose-dependent effect” and it took 42.7 µM to reach half-maximal inhibition (IC50). Further, the Activity result in the test with A549 [2] is “tde”. Also, in the test on A549 [8], the result was Active. Further, the outcome with A549 [3] was inactive.

For the compound `CCOC(=O)c1cc(-c2ccc(OC)cc2)nn1C/C(=N/O)c1ccc(OC)cc1`, the results for the Activity result with A549 [1] and in the test on A549 [2] were “Dose-dependent effect” and “tde”, respectively. In addition, the IC50 in the test with A549 [1] was 36.5 µM. The result with A549 [3] was inactive. The outcome in the test on A549 [9] and with A549 [4] was Active.

Consider `CCOC(=O)c1cc(-c2ccccc2)nn1C/C(=N/O)c1ccc(Cl)cc1`, for which the figures for the Activity entry in the test with A549 [1] and in the test on A549 [2] were “Dose-dependent effect” and “tde”, respectively. Also, half-maximal inhibition in the test on A549 [1] (IC50) was put at 26.3 µM. For the same compound, the result in the test on A549 [8], in the test with A549 [9] and in the test with A549 [10] was Active. Also, in the test on A549 [3], the outcome was inactive.

As for `CCOC(=O)c1cc(-c2ccc(Cl)cc2)nn1C/C(=N/O)c1ccc(OC)cc1`, the Activity entry in the test on A549 [1] was “Dose-dependent effect”; in the test on A549 [2], “tde”. In the test on A549 [1], this compound returned an IC50 of 17.8 µM. In addition, in the test with A549 [3], the result was inactive. Further, the outcome with A549 [9] and in the test with A549 [4] was Active.
